Results: patent US6479651B1, “Modified oligonucleotides, their preparation and their use” (Aventis Pharma Deutschland GmbH, priority 1994, dated 2002)

O=C(Nc1ncnc2c1c(Cl)cn2[C@H]1C[C@H](O)[C@@H](CO)O1)c1ccccc1 [Compound 4, 4-Benzoylamino-5-chloro-7-(2-deoxy-β-D-erythropentofuranosyl)-7H-pyrrolo[2,3-d]pyrimidine]
melting point: 190 °C

O=C(Nc1ncnc2c1c(Br)cn2[C@H]1C[C@H](O)[C@@H](CO)O1)c1ccccc1 [Compound 5, 4-Benzoylamino-5-bromo-7-(2-deoxy-β-D-erythropentofuranosyl)-7H-pyrrolo[2,3-d]pyrimidine]
melting point: 198 °C

Cc1cn([C@H]2C[C@H](O)[C@@H](CO)O2)c2ncnc(NC(=O)c3ccccc3)c12 [Compound 6, 4-Benzoylamino-7-(2-deoxy-β-D-erythropentofuranosyl)-5-methyl-7H-pyrrolo[2,3-d]pyrimidine]
melting point: 196 °C

Nc1ncnc2c1c(I)cn2[C@H]1C[C@H](O)[C@@H](CO)O1 [Compound 14, 4-Amino-7-(2-deoxy-β-D-erythropentofuranosyl)-5-iodo-7H-pyrrolo [2,3-d]pyrimidine]
melting point: 194 °C

COc1nc(NC=O)nc2c1c(Cl)c(Cl)n2[C@H]1C[C@H](OC(=O)C(C)C)[C@@H](COC(=O)C(C)C)O1 [Compound 49, 7-[2-Deoxy-3,5-di-O-(2-methylpropionyl)-β-D-erythropentofuranosyl]-5,6-dichloro-2-[(formyl)amino]-4-methoxy-7H-pyrrolo[2,3-d]pyrimidine]
melting point: 127 to 128 °C

Nc1nc2c(c(I)cn2[C@H]2C[C@H](O)[C@@H](CO)O2)c(=O)[nH]1 [Compound 58, 2-Amino-7-(2-deoxy-β-D-erythropentofuranosyl)-5-iodo-3,7-dihydro-4H-pyrrolo[2,3-d]pyrimidin-4-one]
melting point: 218 to 220 °C
